Source: patent US8242174B2 (priority 2007, dated 2012)

Biological target: Lethal factor protease (Bacillus anthracis, UniProt P15917)
Experiment: biochemical

Sequence of Lethal factor protease (P15917 34-809 limits assumed): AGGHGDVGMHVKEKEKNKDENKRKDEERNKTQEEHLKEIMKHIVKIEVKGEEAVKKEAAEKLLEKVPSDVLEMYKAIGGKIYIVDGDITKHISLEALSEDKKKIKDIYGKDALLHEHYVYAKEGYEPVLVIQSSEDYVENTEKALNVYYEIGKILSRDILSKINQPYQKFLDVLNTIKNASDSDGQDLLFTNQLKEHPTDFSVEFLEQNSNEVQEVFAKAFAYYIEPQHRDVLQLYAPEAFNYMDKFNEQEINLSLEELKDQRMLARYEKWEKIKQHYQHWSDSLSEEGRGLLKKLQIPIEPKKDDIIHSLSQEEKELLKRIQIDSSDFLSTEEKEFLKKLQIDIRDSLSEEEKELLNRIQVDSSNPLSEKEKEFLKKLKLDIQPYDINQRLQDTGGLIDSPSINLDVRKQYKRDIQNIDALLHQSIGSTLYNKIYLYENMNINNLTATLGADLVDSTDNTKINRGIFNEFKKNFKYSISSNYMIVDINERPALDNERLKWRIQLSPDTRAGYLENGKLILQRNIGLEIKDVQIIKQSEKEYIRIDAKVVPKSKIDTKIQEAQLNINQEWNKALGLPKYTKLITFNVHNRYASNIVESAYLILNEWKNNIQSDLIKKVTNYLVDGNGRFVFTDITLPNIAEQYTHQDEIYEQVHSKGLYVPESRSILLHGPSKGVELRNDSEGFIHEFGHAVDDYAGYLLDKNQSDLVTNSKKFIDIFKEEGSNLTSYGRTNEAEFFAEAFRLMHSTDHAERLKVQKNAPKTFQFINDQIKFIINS

Q: With `Cc1cccc(CN(CCCC[C@@H](Nc2cc(C)c(F)c(C)c2)C(=O)NO)Cc2cccc(C)c2)c1` [Compound 167932, (R)-6-[Bis-(3-methyl-benzyl)-amino]-2-(4-fluoro-3,5-dimethyl-phenylamino)-hexanoic acid hydroxyamide] as the molecule, how does the Ki read?
A: 1.1 µM

Q: For `Cc1cc(N[C@@H](C(=O)NO)C(C)C)cc(C)c1F` [Compound 167264, (R)-2-(4-Fluoro-3,5-dimethyl-phenylamino)-N-hydroxy-3-methyl-butyramide], which Ki is on record?
A: 3.1 µM

Q: With `Cc1cc(COCCCC[C@@H](Nc2cc(C)c(F)c(C)c2)C(=O)NO)ccc1F` [Compound 168116, (R)-2-(4-Fluoro-3,5-dimethyl-phenylamino)-6-(4-fluoro-3-methyl-benzyloxy)-hexanoic acid hydroxyamide] as the molecule, how does the Ki read?
A: 0.71 µM

Q: For `CCCC(CCC)CNCCCC[C@@H](Nc1ccc(F)c(C)c1)C(=O)NO` [Compound 168167, (R)-2-(4-Fluoro-3-methyl-phenylamino)-6-(2-propyl-pentylamino)-hexanoic acid hydroxyamide], which Ki is on record?
A: 0.25 µM

Q: With `CCCCC(Nc1cc(C)cc(Cl)c1)C(=O)NO` (stereo not shown) [Compound 167645, 2-(3-Chloro-5-methyl-phenylamino)-hexanoic acid hydroxyamide] as the molecule, how does the Ki read?
A: 2.2 µM

Q: How did the Ki turn out when `Cc1cc(NC(CCC(F)(F)F)C(=O)NO)cc(C)c1F` (stereo not shown) [Compound 167482, 5,5,5-Trifluoro-2-(4-fluoro-3,5-dimethyl-phenylamino)-pentanoic acid hydroxyamide] was run?
A: 1.1 µM

Q: For `CCCCC(Nc1ccccc1)C(=O)NO` (stereo not shown) [Compound 167210, 2-Phenylamino-hexanoic acid hydroxyamide], which Ki is on record?
A: 203 µM

Q: For `CCCCC(Nc1cccc(C(C)C)c1)C(=O)NO` (stereo not shown) [Compound 167183, 2-(3-Isopropyl-phenylamino)-hexanoic acid hydroxyamide], which Ki is on record?
A: > 300 µM

Q: For `Cc1cc(NC(Cc2ccc(OC(F)(F)F)cc2)C(=O)NO)ccc1F` (stereo not shown) [Compound 167233, 2-(4-Fluoro-3-methyl-phenylamino)-N-hydroxy-3-(4-trifluoromethoxy-phenyl)-propionamide], which Ki is on record?
A: 102 µM

Q: For `CCCCC(Nc1ccccc1F)C(=O)NO` (stereo not shown) [Compound 167291, 2-(2-Fluoro-phenylamino)-hexanoic acid hydroxyamide], which Ki is on record?
A: > 300 µM

Q: For `Cc1cc(N[C@H](CCCCNC(=O)Cc2cccc(Oc3ccccc3)c2)C(=O)NO)cc(C)c1F` [Compound 167611, (R)-2-(4-Fluoro-3,5-dimethyl-phenylamino)-6-[2-(3-phenoxy-phenyl)-acetylamino]-hexanoic acid hydroxyamide], which Ki is on record?
A: 0.74 µM

Q: How did the Ki turn out when `Cc1cc(NCC(=O)NO)ccc1F` [Compound 166986, 2-(4-Fluoro-3-methyl-phenylamino)-N-hydroxy-acetamide] was run?
A: 7.6 µM

Q: With `Cc1cc(N[C@H](CCCCNC(=O)CCC(=O)O)C(=O)NO)cc(C)c1F` [Compound 167620, (R)—N-[5-(4-Fluoro-3,5-dimethyl-phenylamino)-5-hydroxycarbamoyl-pentyl]-succinamic acid] as the molecule, how does the Ki read?
A: 3.5 µM

Q: With `Cc1cc(CN(CCCC[C@@H](Nc2ccc(F)c(C)c2)C(=O)NO)Cc2ccc(F)c(C)c2)ccc1F` [Compound 167966, (R)-6-[Bis-(4-fluoro-3-methyl-benzyl)-amino]-2-(4-fluoro-3-methyl-phenylamino)-hexanoic acid hydroxyamide] as the molecule, how does the Ki read?
A: 6.7 µM

Q: How did the Ki turn out when `Cc1cc(N[C@H](CCCCNC(=O)Cc2ccccc2)C(=O)NO)cc(C)c1F` [Compound 167588, (R)-2-(4-Fluoro-3,5-dimethyl-phenylamino)-6-phenylacetylamino-hexanoic acid hydroxyamide] was run?
A: 1.2 µM

Q: With `Cc1cc(NC(C(=O)NO)c2ccccc2)ccc1F` (stereo not shown) [Compound 167228, 2-(4-Fluoro-3-methyl-phenylamino)-N-hydroxy-2-phenyl-acetamide] as the molecule, how does the Ki read?
A: 2.8 µM

Q: With `Cc1cc(N[C@@H](C(=O)NO)C2CCCCC2)cc(C)c1F` [Compound 167424, (R)-2-Cyclohexyl-2-(4-fluoro-3,5-dimethyl-phenylamino)-N-hydroxy-acetamide] as the molecule, how does the Ki read?
A: 0.79 µM

Q: Which Ki does the source give for `Cc1cc(N[C@H](CCCCNCc2cnccn2)C(=O)NO)ccc1F` [Compound 168168, (R)-2-(4-Fluoro-3-methyl-phenylamino)-6-[(pyrazin-2-ylmethyl)-amino]-hexanoic acid hydroxyamide] here?
A: 0.63 µM

Q: For `Cc1cc(N[C@H](CCCCNS(=O)(=O)c2cc(C)c(F)c(C)c2)C(=O)NO)cc(C)c1F` [Compound 167530, (R)-6-(4-Fluoro-3,5-dimethyl-benzenesulfonylamino)-2-(4-fluoro-3,5-dimethyl-phenylamino)-hexanoic acid hydroxyamide], which Ki is on record?
A: 0.37 µM

Q: For `Cc1cc(NC(C)C(=O)NO)ccc1F` (stereo not shown) [Compound 167235, 2-(4-Fluoro-3-methyl-phenylamino)-N-hydroxy-propionamide], which Ki is on record?
A: 1.4 µM

Q: With `CCCCC(Nc1cccc(C)c1)C(=O)NO` (stereo not shown) [Compound 167170, 2-m-Tolylamino-hexanoic acid hydroxyamide] as the molecule, how does the Ki read?
A: 34.1 µM

Q: How did the Ki turn out when `Cc1cc(N[C@H](CCCCN(Cc2ccccc2)Cc2ccccc2)C(=O)NO)cc(C)c1F` [Compound 167738, (R)-6-Dibenzylamino-2-(4-fluoro-3,5-dimethyl-phenylamino)-hexanoic acid hydroxyamide] was run?
A: 0.43 µM

Q: `Cc1cc(N[C@@H](C(=O)NO)c2ccccc2)cc(C)c1F` [Compound 167425, (R)-2-(4-Fluoro-3,5-dimethyl-phenylamino)-N-hydroxy-2-phenyl-acetamide] was tested. Which Ki did it give?
A: 0.48 µM

Q: With `Cc1cc(N[C@H](C)C(=O)NO)cc(C)c1F` [Compound 167497, (R)-2-(4-Fluoro-3,5-dimethyl-phenylamino)-N-hydroxy-propionamide] as the molecule, how does the Ki read?
A: 0.47 µM

Q: Which Ki does the source give for `Cc1cc(N[C@H](CCCCN(C)Cc2ccc(F)cc2)C(=O)NO)ccc1F` [Compound 168147, (R)-6-[(4-Fluoro-benzyl)-methyl-amino]-2-(4-fluoro-3-methyl-phenylamino)-hexanoic acid hydroxyamide] here?
A: 0.19 µM

Q: How did the Ki turn out when `Cc1cc(N[C@H](CCCCNCc2ccc(F)nc2)C(=O)NO)ccc1F` [Compound 167978, (R)-2-(4-Fluoro-3-methyl-phenylamino)-6-[(6-fluoro-pyridin-3-ylmethyl)-amino]-hexanoic acid hydroxyamide] was run?
A: 0.26 µM

Q: For `CCCCC(Nc1ccccc1OC)C(=O)NO` (stereo not shown) [Compound 167293, 2-(2-Methoxy-phenylamino)-hexanoic acid hydroxyamide], which Ki is on record?
A: > 300 µM

Q: Which Ki does the source give for `CCCCC(Nc1cccc(C#N)c1)C(=O)NO` (stereo not shown) [Compound 167719, 2-(3-Cyano-phenylamino)-hexanoic acid hydroxyamide] here?
A: 49 µM

Q: For `Cc1cc(CNCCCC[C@@H](Nc2ccc(F)c(C)c2)C(=O)NO)ccc1F` [Compound 167946, (R)-6-(4-Fluoro-3-methyl-benzylamino)-2-(4-fluoro-3-methyl-phenylamino)-hexanoic acid hydroxyamide], which Ki is on record?
A: 0.06 µM

Q: How did the Ki turn out when `Cc1cc(N[C@H](CCCCN(Cc2ccc(F)nc2)Cc2ccc(F)nc2)C(=O)NO)ccc1F` [Compound 168080, (R)-6-[Bis-(6-fluoro-pyridin-3-ylmethyl)-amino]-2-(4-fluoro-3-methyl-phenylamino)-hexanoic acid hydroxyamide] was run?
A: 10.6 µM

Q: Which Ki does the source give for `Cc1cc(N[C@H](CCCCNCc2cccc(-c3ccccc3)c2)C(=O)NO)ccc1F` [Compound 168165, (R)-6-[(Biphenyl-3-ylmethyl)-amino]-2-(4-fluoro-3-methyl-phenylamino)-hexanoic acid hydroxyamide] here?
A: 0.12 µM

Q: Which Ki does the source give for `Cc1cc(N[C@H](COCc2ccccc2)C(=O)NO)cc(C)c1F` [Compound 167379, (R)-3-Benzyloxy-2-(4-fluoro-3,5-dimethyl-phenylamino)-N-hydroxy-propionamide] here?
A: 1.44 µM

Q: `Cc1cc(N[C@H](CCCCNCC2CCCCC2)C(=O)NO)ccc1F` [Compound 168146, (R)-6-(Cyclohexylmethyl-amino)-2-(4-fluoro-3-methyl-phenylamino)-hexanoic acid hydroxyamide] was tested. Which Ki did it give?
A: 0.25 µM

Q: Which Ki does the source give for `Cc1cc(N[C@H](CCCCNC(=O)OC(C)(C)C)C(=O)NO)ccc1F` [Compound 167926, (R)-[5-(4-Fluoro-3-methyl-phenylamino)-5-hydroxycarbamoyl-pentyl]-carbamic acid tert-butyl ester] here?
A: 2.9 µM

Q: Which Ki does the source give for `Cc1cc(N[C@H](CCCCNCc2cc3ccccc3o2)C(=O)NO)ccc1F` [Compound 168166, (R)-6-[(Benzofuran-2-ylmethyl)-amino]-2-(4-fluoro-3-methyl-phenylamino)-hexanoic acid hydroxyamide] here?
A: 0.18 µM

Q: Which Ki does the source give for `Cc1cc(N[C@H](CCCCNS(=O)(=O)c2ccccc2)C(=O)NO)cc(C)c1F` [Compound 167615, (R)-6-Benzenesulfonylamino-2-(4-fluoro-3,5-dimethyl-phenylamino)-hexanoic acid hydroxyamide] here?
A: 0.84 µM

Q: How did the Ki turn out when `Cc1cc(N[C@H](CCCCNS(C)(=O)=O)C(=O)NO)cc(C)c1F` [Compound 167531, (R)-2-(4-Fluoro-3,5-dimethyl-phenylamino)-6-methanesulfonylamino-hexanoic acid hydroxyamide] was run?
A: 1 µM

Q: `Cc1cc(N[C@H](CC2CCCCC2)C(=O)NO)cc(C)c1F` [Compound 167405, (R)-3-Cyclohexyl-2-(4-fluoro-3,5-dimethyl-phenylamino)-N-hydroxy-propionamide] was tested. Which Ki did it give?
A: 1.48 µM

Q: `Cc1cc(NC(C)C(=O)NO)cc(C)c1F` (stereo not shown) [Compound 167486, 2-(4-Fluoro-3,5-dimethyl-phenylamino)-N-hydroxy-propionamide] was tested. Which Ki did it give?
A: 0.69 µM

Q: How did the Ki turn out when `Cc1cc(N[C@H](CCCCN(Cc2cc(C)c(F)c(C)c2)Cc2cc(C)c(F)c(C)c2)C(=O)NO)ccc1F` [Compound 167971, (R)-6-[Bis-(4-fluoro-3,5-dimethyl-benzyl)-amino]-2-(4-fluoro-3-methyl-phenylamino)-hexanoic acid hydroxyamide] was run?
A: 5.2 µM

Q: `Cc1cc(N[C@H](CCCCNCc2ccc(F)c(F)c2)C(=O)NO)ccc1F` [Compound 167990, (R)-6-(3,4-Difluoro-benzylamino)-2-(4-fluoro-3-methyl-phenylamino)-hexanoic acid hydroxyamide] was tested. Which Ki did it give?
A: 0.1 µM

Q: For `Cc1cc(N[C@H](CCCCNCc2ccc(F)cc2)C(=O)NO)ccc1F` [Compound 167945, (R)-6-(4-Fluoro-benzylamino)-2-(4-fluoro-3-methyl-phenylamino)-hexanoic acid hydroxyamide], which Ki is on record?
A: 0.03 µM

Q: For `CCCCC(Nc1ccc(C)cc1)C(=O)NO` (stereo not shown) [Compound 167255, 2-p-Tolylamino-hexanoic acid hydroxyamide], which Ki is on record?
A: 296 µM
